# Where a name gives a salt, the structure may show the parent alone. Read-outs that look alike come from different tables or passages of the source.
# How the values were obtained:
# Format in all cases: biochemical
# recombinant PRL-2 = target: T1, recombinant PRL-2 (Homo sapiens, UniProt Q12974); assay: In vitro phosphatase assay (DiFMUP hydrolysis), PRL-2;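 also: PRL-2 activity read as DiFMUP hydrolysis after 20 min at room temperature with drug, enzyme first pre-reduced at 4 °C for 20 min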
# T1 construct: 6xHis (N, cleaved yes); made in house; host or cells: E. coli One Shot BL21 Star
# T1 sequence (Q12974 1-167): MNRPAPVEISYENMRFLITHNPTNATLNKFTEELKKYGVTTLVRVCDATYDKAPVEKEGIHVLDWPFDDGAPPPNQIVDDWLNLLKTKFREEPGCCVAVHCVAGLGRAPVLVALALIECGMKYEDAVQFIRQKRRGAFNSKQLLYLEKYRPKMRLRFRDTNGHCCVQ
# recombinant PRL-1 = target: T2, recombinant PRL-1 (Homo sapiens, UniProt Q93096); assay: In vitro phosphatase assay (DiFMUP hydrolysis), PRL-1; also: test concentration or dose not given here
# T2 construct: 6xHis (N, cleaved yes); made in house; host or cells: E. coli One Shot BL21 Star
# T2 sequence (Q93096 1-173): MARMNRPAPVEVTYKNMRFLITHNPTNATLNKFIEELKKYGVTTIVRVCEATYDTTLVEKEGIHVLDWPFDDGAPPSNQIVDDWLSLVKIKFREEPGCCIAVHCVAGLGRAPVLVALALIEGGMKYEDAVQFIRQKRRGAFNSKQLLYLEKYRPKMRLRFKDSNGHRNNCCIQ
# recombinant PRL-3 = target: T3, recombinant PRL-3 (Homo sapiens, UniProt O75365); assay: In vitro phosphatase assay (DiFMUP hydrolysis), PRL-3; also: test concentration or dose not given here
# T3 construct: 6xHis (N, cleaved yes); made in house; host or cells: E. coli One Shot BL21 Star
# T3 sequence (O75365 whole entry): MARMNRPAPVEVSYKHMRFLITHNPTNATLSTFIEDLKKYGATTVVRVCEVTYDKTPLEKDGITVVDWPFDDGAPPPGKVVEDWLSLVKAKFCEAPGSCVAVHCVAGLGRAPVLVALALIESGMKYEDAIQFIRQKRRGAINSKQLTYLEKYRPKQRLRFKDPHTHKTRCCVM
# [1] = FDA-approved drug screen, compared to DMSO
# [2] = FDA-approved drug screen, activity compared to DMSO
Compound,% Phosphatase Activity (compared to DMSO) PRL-2 (recombinant PRL-2; [1]),% Phosphatase Activity (compared to DMSO) PRL-1 (recombinant PRL-1; [1]),% Phosphatase Activity (compared to DMSO) PRL-3 (recombinant PRL-3; [1]),other results
CC(=O)O[C@H]1C[C@@]2(C)[C@@H](C[C@@H](O)[C@H]3[C@@]4(C)CC[C@@H](O)[C@@H](C)[C@@H]4CC[C@@]32C)/C1=C(\CCC=C(C)C)C(=O)O [Fusidate Sodium],79%,87%,66%,
NNc1nncc2ccccc12 [Hydralazine HCl],,,,% Phosphatase Activity (compared to DMSO) PRL-2 (recombinant PRL-2): 85%; % Phosphatase Activity (compared to DMSO) PRL-1 (recombinant PRL-1): 102%; % Phosphatase Activity (compared to DMSO) PRL-3 (recombinant PRL-3): 87%
COc1ccc(CN(CCN(C)C)c2ccccn2)cc1 [Pyrilamine Maleate],111%,94%,98%,
NC[C@H](CC(=O)O)c1ccc(Cl)cc1 [(R)-baclofen],121%,95%,117%,
Nc1ccc(S(=O)(=O)c2ccc(N)cc2)cc1 [Dapson],100%,89%,75%,
C[C@H]1O[C@@H](n2cc(F)c(=O)[nH]c2=O)[C@H](O)[C@@H]1O [Doxifluridine],103%,91%,98%,
CC(=O)Oc1cccc2c1C(=O)c1c(OC(C)=O)cc(C(=O)O)cc1C2=O [Diacerein],51%,32%,31%,
CNC[C@H](O)c1ccc(O)c(O)c1 [Epinephrine Bitartrate],,,,% Phosphatase Activity (compared to DMSO) PRL-2 (recombinant PRL-2): 90%; % Phosphatase Activity (compared to DMSO) PRL-1 (recombinant PRL-1): 116%; % Phosphatase Activity (compared to DMSO) PRL-3 (recombinant PRL-3): 82%
COCCCC/C(=N\OCCN)c1ccc(C(F)(F)F)cc1 [Fluvoxamine maleate],100%,88%,75%,
Nc1ccn([C@@H]2CS[C@H](CO)O2)c(=O)n1 [Lamivudine],113%,104%,92%,
O=C1O[C@H]([C@@H](O)CO)C([O-])=C1O.[Na+] [Sodium ascorbate],,,,% Phosphatase Activity (compared to DMSO) PRL-2 (recombinant PRL-2; [2]): 71%; % Phosphatase Activity (compared to DMSO) PRL-1 (recombinant PRL-1; [2]): 85%; % Phosphatase Activity (compared to DMSO) PRL-3 (recombinant PRL-3; [2]): 113%
CN1CCC(=C2c3ccccc3C=Cc3ccccc32)CC1 [Cyproheptadine hydrochloride],102%,93%,84%,
C#Cc1cccc(Nc2ncnc3cc(OC)c(OCCCCCCC(=O)NO)cc23)c1 [CUDC-101],87%,94%,79%,
CN1CC2c3ccccc3Oc3ccc(Cl)cc3C2C1 (stereo not drawn) [Asenapine],107%,98%,79%,
S=C(NCc1ccc2c(c1)OCO2)N1CCN(c2ncnc3c2oc2ccccc23)CC1 [Amuvatinib (MP-470)],100%,90%,76%,
C[C@]1(O)CC[C@H]2[C@@H]3CCC4=CC(=O)CC[C@]4(C)[C@@]3(F)[C@@H](O)C[C@@]21C [Fluoxymesterone],,,,% Phosphatase Activity (compared to DMSO) PRL-2 (recombinant PRL-2): 102%; % Phosphatase Activity (compared to DMSO) PRL-1 (recombinant PRL-1): 90%; % Phosphatase Activity (compared to DMSO) PRL-3 (recombinant PRL-3): 76%
Cc1cc(=O)[nH]c(=S)[nH]1 [Methylthiouracil],93%,110%,75%,
C[N+](C)(C)CCO.[Cl-] [Choline Chloride],,,,% Phosphatase Activity (compared to DMSO) PRL-2 (recombinant PRL-2): 106%; % Phosphatase Activity (compared to DMSO) PRL-1 (recombinant PRL-1): 99%; % Phosphatase Activity (compared to DMSO) PRL-3 (recombinant PRL-3): 75%
C=CC[C@]1(O)CC[C@H]2[C@@H]3CCC4=CC(=O)CCC4=C3C=C[C@@]21C [Altrenogest],178%,192%,156%,
CC1(O)CCC(C(C)(C)O)CC1.O (stereo not drawn) [Terpin (hydrate)],,,,% Phosphatase Activity (compared to DMSO) PRL-2 (recombinant PRL-2; [2]): 92%; % Phosphatase Activity (compared to DMSO) PRL-1 (recombinant PRL-1; [2]): 88%; % Phosphatase Activity (compared to DMSO) PRL-3 (recombinant PRL-3; [2]): 80%
Bivalirudin Trifluoroacetate,81%,86%,88%,
NC[C@@H]1O[C@H](O[C@H]2[C@@H](O)[C@H](O[C@@H]3[C@@H](O)[C@H](N)C[C@H](N)[C@H]3O[C@H]3O[C@H](CO)[C@@H](O)[C@H](O)[C@H]3N)O[C@@H]2CO)[C@H](N)[C@@H](O)[C@@H]1O [Paromomycin Sulfate],110%,93%,112%,
Capreomycin Sulfate,95%,95%,113%,
C#C[C@]1(OC(C)=O)CC[C@H]2[C@@H]3CCC4=C[C@@H](OC(C)=O)CC[C@@H]4[C@H]3CC[C@@]21C [Ethynodiol diacetate],112%,93%,88%,
NC[C@H]1CC[C@H](C(=O)O)CC1 [Tranexamic Acid],,,,% Phosphatase Activity (compared to DMSO) PRL-2 (recombinant PRL-2; [2]): 89%; % Phosphatase Activity (compared to DMSO) PRL-1 (recombinant PRL-1; [2]): 92%; % Phosphatase Activity (compared to DMSO) PRL-3 (recombinant PRL-3; [2]): 96%
CN(C)/N=N/c1[nH]cnc1C(N)=O [Dacarbazine],98%,92%,76%,
CN(C)[C@@H]1C(=O)C(C(N)=O)=C(O)[C@@]2(O)C(=O)C3=C(O)c4c(O)cccc4[C@@](C)(O)[C@H]3[C@H](O)[C@@H]12 [Oxytetracycline (Terramycin)],73%,58%,74%,

# Source: paper PMC8119466, “A screen of FDA-approved drugs identifies inhibitors of protein tyrosine phosphatase 4A3 (PTP4A3 or PRL-3)” (Scientific Reports, 2021)
